In patent US20230092890A1, “1, 3, 4-Oxadiazole derivative compounds as histone deacetylase 6 inhibitor, and the pharmaceutical composition comprising the same” (Chong Kun Dang Pharmaceutical Corp., priority 2019, published 2023) one finds IC50 data, which are given here for 18 compounds.

The IC50 is the concentration at which inhibition is half-maximal.

Structures are written as SMILES.

One test concerns the target T1, HDAC1 (Homo sapiens, UniProt Q13547).
T1 construct: purchased Enzolifesciences BML-AK511
In words: HDAC enzyme activity inhibition (in vitro), HDAC1 Fluorimetric Drug Discovery Assay Kit. The format is biochemical. To be noted: samples at 100, 1000 and 10000 nM; 37° C. 60 minutes; fluorescence Ex 390, Em 460; read-out: HDAC1 IC50. The method, then: <Experimental Example 1> Identification of HDAC Enzyme Activity Inhibition (In Vitro)
A selective HDAC6 inhibitor is important for selectivity of HDAC1 inhibition, which is a cause of side effects, and thus HDAC1/6 enzyme selectivity and cell selectivity (HDAC1: histone acetylation/HDAC6: tubulin acetylation) were identified.
A HDAC enzyme inhibitory capacity of a test material was measured by using HDAC1 Fluorimetric Drug Discovery Assay Kit (Enzolifesciences: BML-AK511) and HDAC6 human recombinant (Calbiochem: 382180). For a HDAC1 assay, samples were treated at a concentration of 100, 1000 and 10000 nM. For a HDAC6 assay, samples were treated at a concentration of 0.1, 1, 10, 100 and 1000 nM. After the above sample treatment, a reaction was continued at 37° C. for 60 minutes, then treated with a developer, and then subjected to a reaction at 37° C. for 30 minutes, after which fluorescence intensity (Ex 390, Em 460) was measured by using FlexStatin3 (Molecular device).

The target in a further test is T2, HDAC6 human recombinant (Homo sapiens, UniProt Q9UBN7).
T2 construct: purchased Calbiochem 382180
T2 sequence (Q9UBN7 1-1215): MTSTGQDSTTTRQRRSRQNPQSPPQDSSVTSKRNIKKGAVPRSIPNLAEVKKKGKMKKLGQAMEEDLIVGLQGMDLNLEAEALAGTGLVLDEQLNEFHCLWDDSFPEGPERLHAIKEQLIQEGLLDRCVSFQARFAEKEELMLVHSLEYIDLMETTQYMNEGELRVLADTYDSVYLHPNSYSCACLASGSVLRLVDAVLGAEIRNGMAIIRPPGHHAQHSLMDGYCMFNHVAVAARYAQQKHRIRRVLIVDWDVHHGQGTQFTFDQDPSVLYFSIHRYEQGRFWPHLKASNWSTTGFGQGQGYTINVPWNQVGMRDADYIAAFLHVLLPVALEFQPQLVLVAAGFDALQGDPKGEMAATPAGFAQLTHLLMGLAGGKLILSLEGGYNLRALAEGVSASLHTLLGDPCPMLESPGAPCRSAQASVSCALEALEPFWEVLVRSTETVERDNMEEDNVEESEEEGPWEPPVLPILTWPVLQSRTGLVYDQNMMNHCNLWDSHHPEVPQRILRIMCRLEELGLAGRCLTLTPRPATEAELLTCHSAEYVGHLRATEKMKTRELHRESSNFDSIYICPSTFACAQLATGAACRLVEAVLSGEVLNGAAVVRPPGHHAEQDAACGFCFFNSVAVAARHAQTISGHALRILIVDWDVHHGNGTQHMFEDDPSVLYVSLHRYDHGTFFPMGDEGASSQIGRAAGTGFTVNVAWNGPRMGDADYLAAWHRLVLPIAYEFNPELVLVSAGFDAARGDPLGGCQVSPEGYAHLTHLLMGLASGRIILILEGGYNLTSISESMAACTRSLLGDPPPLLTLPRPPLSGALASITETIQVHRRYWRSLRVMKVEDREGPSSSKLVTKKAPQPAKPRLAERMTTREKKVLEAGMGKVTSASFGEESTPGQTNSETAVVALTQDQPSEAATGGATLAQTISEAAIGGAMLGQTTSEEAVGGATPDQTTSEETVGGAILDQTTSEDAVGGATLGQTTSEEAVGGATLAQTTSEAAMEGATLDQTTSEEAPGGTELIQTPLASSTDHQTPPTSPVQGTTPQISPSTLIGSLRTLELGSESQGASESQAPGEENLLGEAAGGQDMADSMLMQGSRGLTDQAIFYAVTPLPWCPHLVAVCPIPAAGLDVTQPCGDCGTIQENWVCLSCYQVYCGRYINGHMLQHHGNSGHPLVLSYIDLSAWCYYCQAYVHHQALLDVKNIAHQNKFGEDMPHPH
The experiment in a line: HDAC enzyme activity inhibition (in vitro), HDAC6 assay. Format: biochemical. The following applies: samples at 0.1, 1, 10, 100 and 1000 nM; 37° C. 60 minutes; fluorescence Ex 390, Em 460; read-out: HDAC6 IC50. The protocol: A HDAC enzyme inhibitory capacity of a test material was measured by using HDAC1 Fluorimetric Drug Discovery Assay Kit (Enzolifesciences: BML-AK511) and HDAC6 human recombinant (Calbiochem: 382180). For a HDAC1 assay, samples were treated at a concentration of 100, 1000 and 10000 nM. […] After the above sample treatment, a reaction was continued at 37° C. for 60 minutes, then treated with a developer, and then subjected to a reaction at 37° C. for 30 minutes, after which fluorescence intensity (Ex 390, Em 460) was measured by using FlexStatin3 (Molecular device).

T1 sequence (Q13547 whole entry): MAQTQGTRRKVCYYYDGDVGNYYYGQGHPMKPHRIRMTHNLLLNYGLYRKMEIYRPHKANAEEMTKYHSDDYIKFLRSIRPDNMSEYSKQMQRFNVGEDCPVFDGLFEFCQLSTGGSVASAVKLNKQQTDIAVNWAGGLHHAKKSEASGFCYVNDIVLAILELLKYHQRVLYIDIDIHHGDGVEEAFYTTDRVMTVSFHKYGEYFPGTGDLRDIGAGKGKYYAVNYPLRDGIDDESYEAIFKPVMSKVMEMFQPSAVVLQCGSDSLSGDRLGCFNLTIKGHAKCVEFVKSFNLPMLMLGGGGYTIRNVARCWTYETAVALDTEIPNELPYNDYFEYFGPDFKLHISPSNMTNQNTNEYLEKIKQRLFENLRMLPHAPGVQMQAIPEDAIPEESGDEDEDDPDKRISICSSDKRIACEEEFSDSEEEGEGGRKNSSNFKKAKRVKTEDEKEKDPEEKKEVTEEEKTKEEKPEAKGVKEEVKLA

`CC(C)N1CCC(n2c(=O)n(Cc3ccc(-c4nnc(C(F)F)o4)cc3F)c3ccccc32)CC1` [Compound 15, 1-(4-(5-(difluoromethyl)-1,3,4-oxadiazole-2-yl)-2-fluorobenzyl)-3-(1-isopropylpiperidine-4-yl)-1,3-dihydro-2H-benzo[d]imidazole-2-one]: the concentration for half-maximal inhibition (IC50) on HDAC1 was more than 10000 nM; at HDAC6 human recombinant, 193 nM.
For `O=c1n(Cc2ccc(-c3nnc(C(F)F)o3)cc2F)c2ccccc2n1C1CCN(C2COC2)CC1` [Compound 16, 1-(4-(5-(difluoromethyl)-1,3,4-oxadiazole-2-yl)-2-fluorobenzyl)-3-(1-(oxetan-3-yl)piperidine-4-yl)-1,3-dihydro-2H-benzo[d]imidazole-2-one] the same measures were more than 10000 nM and 239 nM.
For `CC(=O)N1CCC(n2c(=O)n(Cc3ccc(-c4nnc(C(F)F)o4)cc3F)c3ccccc32)CC1` [Compound 17, 1-(1-acetylpiperidine-4-yl)-3-(4-(5-(difluoromethyl)-1,3,4-oxadiazole-2-yl)-2-fluorobenzyl)-1,3-dihydro-2H-benzo[d]imidazole-2-one] the same measures were more than 10000 nM and 214 nM.
For `CS(=O)(=O)N1CCC(n2c(=O)n(Cc3ccc(-c4nnc(C(F)F)o4)cc3F)c3ccccc32)CC1` [Compound 18, 1-(4-(5-(difluoromethyl)-1,3,4-oxadiazole-2-yl)-2-fluorobenzyl)-3-(1-(methylsulfonyl)piperidine-4-yl)-1,3-dihydro-2H-benzo[d]imidazole-2-one], the IC50 at HDAC1 was more than 10000 nM; at HDAC6 human recombinant, 267 nM.
The corresponding values for `O=c1n(Cc2ccc(-c3nnc(C(F)F)o3)cc2F)c2ccccc2n1C1CCN(Cc2cccc3cc[nH]c23)CC1` [Compound 19, 1-(1-((1H-indole-7-yl)methyl)piperidine-4-yl)-3-(4-(5-(difluoromethyl)-1,3,4-oxadiazole-2-yl)-2-fluorobenzyl)-1,3-dihydro-2H-benzo[d]imidazole-2-one] are more than 10000 nM and 2420 nM.
For `CN1CCC(n2c(=O)n(Cc3ccc(-c4nnc(C(F)F)o4)cc3F)c3ccccc32)C1` (stereo not drawn) [Compound 20, 1-(4-(5-(difluoromethyl)-1,3,4-oxadiazole-2-yl)-2-fluorobenzyl)-3-(1-methylpyrrolidine-3-yl)-1,3-dihydro-2H-benzo[d]imidazole-2-one] the same measures were more than 10000 nM and 285 nM.
The corresponding values for `O=c1n(Cc2ccc(-c3nnc(C(F)F)o3)cc2F)c2ccccc2n1C1CCN(C2COC2)C1` (stereo not drawn) [Compound 21, 1-(4-(5-(difluoromethyl)-1,3,4-oxadiazole-2-yl)-2-fluorobenzyl)-3-(1-(oxetan-3-yl)pyrrolidine-3-yl)-1,3-dihydro-2H-benzo[d]imidazole-2-one] are more than 10000 nM and 299 nM.
Consider `CN1CC(n2c(=O)n(Cc3ccc(-c4nnc(C(F)F)o4)cc3F)c3ccccc32)C1` [Compound 22, 1-(4-(5-(difluoromethyl)-1,3,4-oxadiazole-2-yl)-2-fluorobenzyl)-3-(1-methylazetidine-3-yl)-1,3-dihydro-2H-benzo[d]imidazole-2-one], for which the IC50 at HDAC1 is more than 10000 nM; on HDAC6 human recombinant, 109 nM.
Consider `O=c1n(Cc2ccc(-c3nnc(C(F)F)o3)cc2F)c2ccccc2n1C1CN(C2COC2)C1` [Compound 23, 1-(4-(5-(difluoromethyl)-1,3,4-oxadiazole-2-yl)-2-fluorobenzyl)-3-(1-(oxetan-3-yl)azetidine-3-yl)-1,3-dihydro-2H-benzo[d]imidazole-2-one], for which the figures for the IC50 on HDAC1 and at HDAC6 human recombinant were more than 10000 nM and 241 nM, respectively.
Take `O=c1n(CCN2CC3(COC3)C2)c2ccccc2n1Cc1ccc(-c2nnc(C(F)F)o2)cc1F` [Compound 24]: the IC50 at HDAC1 was more than 10000 nM; on HDAC6 human recombinant it was 137 nM.
On to `O=c1n(CCN2CC3(COC3)C2)c2ccccc2n1Cc1ccc(-c2nnc(C(F)F)o2)cn1` [Compound 25, 1-(2-(2-oxa-6-azaspiro[3.3]heptane-6-yl)ethyl)-3-((5-(5-(difluoromethyl)-1,3,4-oxadiazole-2-yl)pyridine-2-yl)methyl)-1,3-dihydro-2H-benzo[d]imidazole-2-one], for which the IC50 at HDAC1 is more than 10000 nM; on HDAC6 human recombinant, 84 nM.
For `O=c1n(CCN2CC3(COC3)C2)c2ccccc2n1Cc1ccc(-c2nnc(C(F)F)o2)cc1` [Compound 26, 1-(2-(2-oxa-6-azaspiro[3.3]heptane-6-yl)ethyl)-3-(4-(5-(difluoromethyl)-1,3,4-oxadiazole-2-yl)benzyl)-1,3-dihydro-2H-benzo[d]imidazole-2-one] the same measures were more than 10000 nM and 209 nM.
For `O=c1n(Cc2ccc(-c3nnc(C(F)F)o3)cc2F)c2ccccc2n1C1CC2(COC2)C1` [Compound 27, 1-(4-(5-(difluoromethyl)-1,3,4-oxadiazole-2-yl)-2-fluorobenzyl)-3-(2-oxaspiro[3.3]heptane-6-yl)-1,3-dihydro-2H-benzo[d]imidazole-2-one] the same measures were more than 10000 nM and 110 nM.
For `O=c1n(Cc2ccc(-c3nnc(C(F)F)o3)cn2)c2ccccc2n1C1CC2(COC2)C1` [Compound 28, 1-((5-(5-(difluoromethyl)-1,3,4-oxadiazole-2-yl)pyridine-2-yl)methyl)-3-(2-oxaspiro[3.3]heptane-6-yl)-1,3-dihydro-2H-benzo[d]imidazole-2-one], the IC50 on HDAC1 was more than 10000 nM; on HDAC6 human recombinant, 64 nM.
Take `O=c1n(Cc2ccc(-c3nnc(C(F)F)o3)cc2)c2ccccc2n1C1CC2(COC2)C1` [Compound 29, 1-(4-(5-(difluoromethyl)-1,3,4-oxadiazole-2-yl)benzyl)-3-(2-oxaspiro[3.3]heptane-6-yl)-1,3-dihydro-2H-benzo[d]imidazole-2-one]: the values for the IC50 at HDAC1 and on HDAC6 human recombinant were more than 10000 nM and 210 nM, respectively.
The corresponding values for `COCCN1Cc2ccccc2N(Cc2ccc(-c3nnc(C(F)F)o3)cc2)C1=O` [Compound 30, 1-(4-(5-(difluoromethyl)-1,3,4-oxadiazole-2-yl)benzyl)-3-(2-methoxyethyl)-3,4-dihydro quinazoline-2(1H)-one] are more than 10000 nM and 444 nM.
Regarding `COCCN1Cc2ccccc2N(Cc2ccc(-c3nnc(C(F)F)o3)cn2)C1=O` [Compound 31, 1-((5-(5-(difluoromethyl)-1,3,4-oxadiazole-2-yl)pyridine-2-yl)methyl)-3-(2-methoxyethyl)-3,4-dihydroquinazoline-2(1H)-one], the concentration for half-maximal inhibition (IC50) was more than 10000 nM at HDAC1 and 108 nM at HDAC6 human recombinant.
With `CN1CC(N2Cc3ccccc3N(Cc3ccc(-c4nnc(C(F)F)o4)cc3F)C2=O)C1` [Compound 32, 1-(4-(5-(difluoromethyl)-1,3,4-oxadiazole-2-yl)-2-fluorobenzyl)-3-(1-methylazetidine-3-yl)-3,4-dihydroquinazoline-2(1H)-one], the 50% inhibitory concentration (IC50) is more than 10000 nM at HDAC1 and 228 nM at HDAC6 human recombinant.
